Data set [1] can be described thus: Water and lipid solubility (observation).
The test system of another data set is mice. The conditions noted are these: single administration; cited from earlier work.
Another data set has as its system monkeys. The conditions noted are these: single administration; cited from earlier work.
Data set [2] can be described thus: Solubility of modafinil in solvent composition, measured by HPLC. The conditions noted are these: PEG-400:benzyl alcohol 95:5 (v/v) solvent mixture, organic solvent or mixture, thermodynamic from solid, in 95:5 (v/v) PEG-400:benzyl alcohol, cooled to room temperature, filtered. Format: physicochemical. The method, then: The following HPLC method may be used to measure the modafinil compound content in the compositions. Filter a solution saturated with a modafinil compound through a 1.2 μm syringe filter. Dilute 10 μL of the clear solution to 1 mL with 990 μL of dimethylsulfoxide (Fischer Certified ACS grade). Take 10 μL of the diluted solution for the HPLC analysis, with the following representative column conditions: • Flow rate: 1.2 mL/min. • Column: ODS, 4.6×20 mm, Column Temp: 30° C. • Mobil phase: 80% (65% Acetonitrile/35% 1M phosphate buffer) • 20% water • Analysis time: 5 minutes • Wavelength: 222 nanometers
Concentration can be calculated by comparison to area from a modafinil compound standard used at 0.4 mg/mL with appropriate dilution.
A mixture of 95 mL of PEG-400 and 5 ml of benzyl alcohol was stirred at room temperature until homogeneous. To a separate container, 0.1 gram of modafinil was weighed and 1 mL of the mixed solvent was added with stirring and heating to 55-60° C. The solution was allowed to cool to room temperature and any undissolved solid was removed by filtering the solution. In the case of a viscous solution or a solution that solidifies at room temperature, warming until a freely flowing solution was obtained and then filtration gave a solution free of particulate matter.

SMILES strings stand for the structures. Values after ≈ are worked out from the molar mass of the structure shown.

As a reminder, the solubility is the concentration that dissolves in the medium under given conditions. Regarding `NC(=O)C[S+]([O-])C(c1ccccc1)c1ccccc1` (centres unmarked) [modafinil, 2-(benzhydryl-sulfinyl)acetamide], in data set [1], the lipid solubility entry is given as “very poor” and the water solubility result is on record as “very poor”. Besides, in the data set on mice, the locomotor activity entry is listed as “increased locomotor activity”. For the same compound, the nocturnal activity result in the data set on monkeys is on record as “increased nocturnal activity”. Besides, the solubility in data set [2] is 61 mg/mL (≈ 223 mM).

Source of the values: patent publication US6919378B2, “Pharmaceutical solutions of modafinil compounds” (Cephalon, Inc., priority 2000, dated 2005).
